Data taken from patent US6613507B1 (priority 2000, dated 2003).

What was measured:
[1] = type: physicochemical; conditions: pH 7.4
hepatitis C = conditions: human, in vivo; cited from earlier work
[2] = dog, in vivo; cited from earlier work

Compound	amino group protonated at physiological pH [1]	biochemical and virological markers (hepatitis C)	increase in blood pressure [2] [%]
NC12CC3CC(CC(C3)C1)C2 [amantadine, 1-adamantanamine]	over 90%	improved	
CNC[C@H](O)c1cccc(O)c1 [phenylephrine]			20
